Results reported in patent US20100159042A1, “CAPSICUM BASED MILDEW KILLING SOLUTION AND METHOD OF USE” (priority 2008, published 2010).

Assays:
[1] = system: Powdery Mildew (PM), Uncinula Necator; test: First year grape vine spray test (Thompson Seedless grapes); type: in vivo; details: summary of first year test
From the text: The objective of this study was to test the affect of capsicum on Powdery Mildew (PM), Uncinula Necator and Downey Mildew (DM), Plasmopara Viticola and its destruction of the grape vine, leaves, flag shoots, shoots and bunches. Grape varieties are susceptible to powdery mildew and Downey mildew, Thompson's Seedless grapes was used as a test subject.
Treatment began in the beginning of the season onto fruiting bodies (Cleistothecia) and the early stage of bud growth (3 to 5 inches). Later treatment was applied again, after about 3 weeks when there was new bud growth. When the fruits were about the size of small peas, treatment is once again applied to the bunches. Treatment was also planned to be administered if symptoms of fungal infections arose.
• Kalsec brand water soluble; Code #01-050-02-01 • MasterTaste brand oil soluble; Code 500087, Lot #059618
The grape vineyard to be treated is located at 19521 American Ave., Kerman Calif.,—Thompson Seedless grapes—NW corner. (Block 5B). Vines were sprayed with standard spray equipment (bottles). The spray was applied at approximately one foot away from the plants and vines. The spray was applied at an application rate of about ½ the usual spray application from a standard tractor rig. The budding fruit was sprayed along with the leaves and new budding growth. The spray was administered from the sides only. […]

[2] = cited from earlier work

COc1cc(CNC(=O)CCCC/C=C/C(C)C)ccc1O [Capsaicin, N-vanillyl-8-methyl-6-(E)-noneamide]
effect on growth of mildew on grape vines [1]: hinders or kills the growth of mildew | solubility in alcohol ([2]; alcohol): soluble | solubility in cold water ([2]; cold water): insoluble | solubility in fats, oils and alcohol ([2]; fats, oils and alcohol): very soluble | solubility in water ([2]; water): sparingly soluble
